Source: PMC8244912, “An oxytocin/vasopressin-related neuropeptide modulates social foraging behavior in the clonal raider ant” (PLoS Biology, 2021)
“Also recorded” adds a separate entry of the source. Where a SMILES comes first, the peptide text is derived from it. Bridges are numbered along the chain shown (N, C = ends).

What was measured:
[1] = system: HEK293T cells transfected with an empty vector; assay: Calcium imaging (fura-2), empty vector; format: cell-based, human
Experimental: (§1) Experiments were conducted following Garrison J.L., et al 2012 [8] with modifications. Human embryonic kidney 293T cells (HEK293T) were cultured in DMEM and supplemented with 10% FBS at 37 °C in a cell incubator containing 5% CO^2. Cells were grown in 35 mm MatTek glass bottom dishes to a level of 60 – 70% confluency. Cells were transfected with a 1:1 ratio of PCDNA3.3 containing ~ 1μg of itcR cDNA (full-length isoform A or truncated isoform H) (See S1 Fig for isoforms) and pcDNA3-alpha 16 (encoding promiscuous G protein 16) using Lipofectamine 2000. Cells were incubated for 24 h at 37 °C and then transferred to 28 °C for another 16-24 h. For control experiments, empty vector was also transfected. On the day of the experiment, the cells were loaded with […] fura-2/AM (Invitrogen) for 25 min at 37 °C. Inotocin peptide diluted in Ringer’s solution was applied to the cells for 15 s with a peristaltic pump, and fluorescence at 510 nm was monitored (excitation at 340/380 nm) using a MetaFluor calcium imaging system with a Nikon Eclipse TE2000U microscope.

Ooceraea biroi ants = assay: Pharmacological immersion, mixed-age colonies: ants outside the nest (S9 Fig); format: in vivo; conditions: immersion in 1 mM; mixed-age colonies with larvae; 5 hours; n = 6; p = 0.0002, extra sum-of-squares F-test
From the text: Mature O. biroi inotocin peptide (CLITNCPRG) was synthesized and cyclized at The Rockefeller University Proteomics Resource Center, along with a scrambled version of the peptide (NRPCGLTCI) as a negative control with identical amino acid composition.
For the initial experiment (S9 Fig), we set up 6 experimental colonies of line B ants that were color tagged as previously described. Each colony consisted of 16 ants in an airtight Petri dish with a 5-cm diameter; 8 age-matched 4-week-old and 8 age-matched approximately 20-week-old ants. We added ten 3- to 4-day-old larvae to the colonies. We used Logitech (Lausanne, Switzerland) C910 USB cameras to record 5 hours after the treatments, and we used ImageJ to split the videos in batches of 5,000 frames (corresponding to 18.75-minute intervals). We sampled every 10th frame from the 5,000 frames and overlaid the resulting 500 frames into a single image using ImageJ. In each image, we manually counted the number of instances of ants that were outside the nest as a proxy for foraging behavior. Color tagging was used to differentiate inotocin treated from mock treated and untreated ants. The nest was defined as a region of high density of ants in the 500 image projections.
On the day of the experiment, colonies were not fed. To avoid disturbance to the colony as much as possible, half the colony was left untreated, and half was treated. […]

[2] = system: O. biroi inotocin receptor splice variant ObiroiItr_H (lacks TM4-7); assay: Calcium imaging (fura-2), truncated receptor isoform H; format: cell-based, Ooceraea biroi
Experimental: The full-length inotocin receptor cDNA sequence that was cloned and used for calcium assays is ObiroiItr_A (GenBank MW660838; for protein sequence, see S1 Fig). We also tested splice variant ObiroiItr_H (GenBank MW660845; for protein sequence, see S1 Fig), which lacks TM4-7, for calcium activity.
as §1

[3] = system: HEK293T cells transfected with an empty vector; assay: Calcium flux, HEK293T cells transfected with empty vector; format: cell-based, human; conditions: inotocin 100 nM
Experimental: (§2) Human embryonic kidney 293T (HEK293T) cells were cultured in DMEM supplemented with 10% FBS at 37°C in a tissue culture incubator with a humidified atmosphere containing 5% CO2. Cells were plated in 10-cm dishes, and, when they reached 60% to 70% confluency, they were transfected with a pcDNA3.3 vector containing approximately 1 ng of inotocin receptor cDNA or an empty vector as a control using Lipofectamine 2000. Cells were transfected directly into poly-D-lysine–coated 384-well plates and incubated for 48 hours at 37°C. Subsequently, cells were incubated with FLIPR Calcium 4 Assay kit dye for 1 hour in the incubator. The fluorescence (excitation, 488 nm; emission, 530 nm) of the wells was recorded using a Flex Station II 384 (Molecular Devices, San Jose, California, USA), and a dose curve of inotocin (0 to 3 μM) was applied to the wells, in sextuplicate (see below for inotocin peptide synthesis). We calculated the EC50 values using Prism (GraphPad Software version 8) nonlinear regression, 4-parameter logistic curve fit. Dose curves were repeated at least 3 times on independently prepared samples and different days. Results were consistent across replicates, and example dose curves are shown in Fig 1C and S4A Fig. Control experiments are shown in S2–S5 Figs.

[4] = system: O. biroi inotocin receptor (itcR); assay: Calcium flux, inotocin receptor co-transfected with G proteins or empty vector; format: cell-based, Ooceraea biroi
Experimental: as §2
(C and D) Co-transfection with Gq alpha 16. (E and F) Co-transfection with Gq alpha with Gi alpha C term chimera. […]

CC[C@H](C)[C@@H]1NC(=O)[C@H](CC(C)C)NC(=O)[C@@H](N)CSSC[C@@H](C(=O)N2CCC[C@H]2C(=O)N[C@@H](CCCNC(=N)N)C(=O)NCC(N)=O)NC(=O)[C@H](CC(N)=O)NC(=O)[C@H]([C@@H](C)O)NC1=O [Inotocin] (H-CLITNCPRG-NH2; disulfide 1-6; N-terminus and C-terminus assumed)
calcium signal [1]: No calcium signal is detected
time/instances outside the nest vs scrambled control peptide (Ooceraea biroi ants): spent more time outside the nest than controls; also recorded: foraged more when treated with inotocin than when treated with the control peptide
calcium signal [2]: no response to inotocin; also recorded: No calcium signal is detected; also recorded: does not respond to inotocin
calcium response [3]: No Ca^2+ influx is detected
calcium response ([4]; co-transfection with Gq alpha 16, Gq alpha with Gi alpha C term chimera, or Gq alpha with Go alpha C term chimera compared with empty vector): does not require co-transfection with a G-protein
calcium response ([4]; itcR co-transfected with empty vector (no G protein), 28°C or constantly 37°C): response in a dose dependent manner; also recorded: show calcium responses when stimulated with inotocin
